From patent publication US20160039825A1 (BIOGEN MA INC., priority 2013, published 2016) come the findings set out here.

Where a name gives a salt, the structure may show the parent alone.

For orientation: IC50 means the concentration at which inhibition is half-maximal. A high value points to a need for much substance.

For the first assay, the target named is T1, Human ATX protein (Homo sapiens, UniProt Q13822).
T1 construct: made in house
The experiment in a line: Autotaxin (ATX) assay, FRET with FS-3 substrate. The format is biochemical. The settings on record: greater than 10 μM. The procedure, abridged: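 In-house human ATX (1.0 μg/mL final) was preincubated with compound for 30 min at room temperature in Tris buffer pH 7.4 with NaCl, KCl, CaCl2, MgCl2 and 1 mg/mL fatty acid-free BSA. FS-3 (2 μM final) was added and the plate shaken 2 h at room temperature in the dark. Fluorescence was read at ex 485/em 538 nm.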
`COC(=O)C1CN(C(=O)OCc2cc(C(F)(F)F)cc(C(F)(F)F)c2)Cc2ccnn2C1` (centres unmarked) [Example 406]: the half-inhibitory concentration (IC50) was more than 10000 nM.

Staying with this assay, now noted: upper bound bins (no greater than 100, 250 or 500 nM); FS-3 2 μM, ATX 1.0 μg/mL.
For the molecule `C[C@@H]1CNC[C@@H](C)N1C(=O)c1cc2n(n1)CCCN(C(=O)OCc1cc(Cl)cc(C(F)(F)F)c1)C2` [Example 161], the half-maximal inhibitory concentration (IC50) was not above 100 nM.
Regarding `O=C(CCc1cc(Cl)cc(Cl)c1)N1CCn2nc(C(=O)N3C4CCCC3CCC4)cc2C1` [Example 94, 1-(2-(9-Azabicyclo[3.3.1]nonane-9-carbonyl)-6,7-dihydropyrazolo[1,5-a]pyrazin-5(4H)-yl)-3-(3,5-dichlorophenyl)propan-1-one], the IC50 was not above 100 nM.
In turn, `O=C(OCc1cc(Cl)cc(C(F)(F)F)c1)N1CCn2nc(C(=O)N3CC4CCC(C3)N4)cc2C1` [Example 429] yielded an IC50 not above 100 nM.
On the same count and under the same terms, the figure for `O=C(OCc1cc(Cl)cc(C(F)(F)F)c1)N1CCCn2nc(C(=O)N3CC4CNC(C4)C3)cc2C1` (centres unmarked) [Example 188] is not above 100 nM.
Molecule `O=C(CN1CC2CC2C1)c1cc2n(n1)CCN(C(=O)OCc1cc(C(F)(F)F)cc(C(F)(F)F)c1)C2` (centres unmarked) [Example 258] yielded an IC50 not above 100 nM.
Same read-out and setting: the value for `CN1CC=C(c2cc3n(n2)CCCN(C(=O)OCc2cc(C(F)(F)F)cc(C(F)(F)F)c2)C3)CC1` [Example 371, 3,5-bis(trifluoromethyl)benzyl 2-(1-methyl-1,2,3,6-tetrahydropyridin-4-yl)-7,8-dihydro-4H-pyrazolo[1,5-a][1,4]diazepine-5(6H)-carboxylate] was not above 100 nM.
For the molecule `Cc1cc(COC(=O)N2CCCn3nc(C(=O)O)cc3C2)cc(C(F)(F)F)c1` [Example 109, 5-(((3-Methyl-5-(trifluoromethyl)benzyl)oxy)carbonyl)-5,6,7,8-tetrahydro-4H-pyrazolo[1,5-a][1,4]diazepine-2-carboxylic acid], the IC50 is not above 100 nM.
As to `O=C(O)c1cc2n(n1)CCCN(C(=O)OCc1cc(C(F)(F)F)cc(C(F)(F)F)c1)C2` [Example 8, 5-(((3,5-Bis(trifluoromethyl)benzyl)oxy)carbonyl)-5,6,7,8-tetrahydro-4H-pyrazolo[1,5-a][1,4]diazepine-2-carboxylic acid], the IC50 was not above 100 nM.
As for `O=C(O)c1nn2c(c1Cl)CN(C(=O)OCc1cc(C(F)(F)F)cc(C(F)(F)F)c1)CC2` [Example 113, 5-(((3,5-Bis(trifluoromethyl)benzyl)oxy)carbonyl)-3-chloro-4,5,6,7-tetrahydropyrazolo[1,5-a]pyrazine-2-carboxylic acid], the IC50 is not above 250 nM.
The same measure, in the same setting: the figure for `O=C(N[C@H]1CC[C@H](C(=O)O)CC1)c1cc2n(n1)CCCN(C(=O)OCc1cc(Cl)cc(Cl)c1)C2` [Example 86, (trans)-4-(5-(((3,5-Dichlorobenzyl)oxy)carbonyl)-5,6,7,8-tetrahydro-4H-pyrazolo[1,5-a][1,4]diazepine-2-carboxamido)cyclohexanecarboxylic acid] is not above 250 nM; for `NC(C(=O)O)c1cc2n(n1)CCCN(C(=O)OCc1cc(C(F)(F)F)cc(C(F)(F)F)c1)C2` (centres unmarked) [Example 390, 2-Amino-2-(5-(((3,5-bis(trifluoromethyl)benzyl)oxy)carbonyl)-5,6,7,8-tetrahydro-4H-pyrazolo[1,5-a][1,4]diazepin-2-yl)acetic acid] it is not above 100 nM; for `CN1CCC(c2cc3n(n2)CCCN(C(=O)OCc2cc(C(F)(F)F)cc(C(F)(F)F)c2)C3)C1` (centres unmarked) [Example 385] it is not above 250 nM.
As for `CC(O)c1cc2n(n1)CCN(C(=O)OCc1cc(C(F)(F)F)cc(C(F)(F)F)c1)C2` (centres unmarked) [Example 396, 3,5-bis(Trifluoromethyl)benzyl 2-(1-hydroxyethyl)-6,7-dihydropyrazolo[1,5-a]pyrazine-5(4H)-carboxylate], the IC50 is not above 100 nM.
Same read-out and setting: the value for `CC(=O)Nc1cc2n(n1)CCCN(C(=O)OCc1cc(C(F)(F)F)cc(C(F)(F)F)c1)C2` [Example 337, 3,5-bis(trifluoromethyl)benzyl 2-acetamido-7,8-dihydro-4H-pyrazolo[1,5-a][1,4]diazepine-5(6H)-carboxylate] was not above 100 nM; that for `CC(NC1=NCCN1)c1cc2n(n1)CCCN(C(=O)OCc1cc(Cl)cc(C(F)(F)F)c1)C2` (centres unmarked) [Example 157, 3-chloro-5-(trifluoromethyl)benzyl 2-(1-((4,5-dihydro-1H-imidazol-2-yl)amino)ethyl)-7,8-dihydro-4H-pyrazolo[1,5-a][1,4]diazepine-5(6H)-carboxylate] was not above 250 nM.
Still for that read-out and setting: the value for `CC(C)(C)OC(=O)N1C2CCC1CN(C(=O)c1cc3n(n1)CCN(C(=O)OCc1cc(Cl)cc(C(F)(F)F)c1)C3)C2` [Example 478] was not above 100 nM; that for `Cc1cc2n(n1)CCCN(C(=O)OCc1cc(Cl)cc(Cl)c1)C2` [Example 130, 3,5-Dichlorobenzyl 2-methyl-7,8-dihydro-4H-pyrazolo[1,5-a][1,4]diazepine-5(6H)-carboxylate] was not above 500 nM.
Same read-out and setting: the figure for `NC1CCN(C(=O)c2cc3n(n2)CCN(C(=O)OCc2cc(C(F)(F)F)cc(C(F)(F)F)c2)C3)CC1` [Example 422, 3,5-bis(trifluoromethyl)benzyl 2-(4-aminopiperidine-1-carbonyl)-6,7-dihydropyrazolo[1,5-a]pyrazine-5(4H)-carboxylate hydrochloride] is not above 100 nM; for `O=C(O)c1cc2n(n1)CCCN(C(=O)OCc1cc(Cl)cc(C(F)(F)F)c1)C2` [Example 65, 5-(((3-Chloro-5-(trifluoromethyl)benzyl)oxy)carbonyl)-5,6,7,8-tetrahydro-4H-pyrazolo[1,5-a][1,4]diazepine-2-carboxylic acid] it is not above 100 nM.
Regarding `CNC1CN(C(=O)c2cc3n(n2)CCN(C(=O)OCc2cc(C(F)(F)F)cc(C(F)(F)F)c2)C3)C1` [Example 438], the IC50 is not above 100 nM.
On the same count and under the same terms, the value for `O=C(OCc1cc(C(F)(F)F)cc(C(F)(F)F)c1)N1CCCn2nc(C(=O)N3CCOCC3)cc2C1` [Example 30, 3,5-Bis(trifluoromethyl)benzyl 2-(morpholine-4-carbonyl)-7,8-dihydro-4H-pyrazolo[1,5-a][1,4]diazepine-5(6H)-carboxylate] was not above 100 nM; that for `NC(=O)c1cc2n(n1)CCN(C(=O)OCc1cc(C(F)(F)F)cc(C(F)(F)F)c1)C2` [Example 491] was not above 100 nM; that for `O=C(OCc1cc(C(F)(F)F)cc(C(F)(F)F)c1)N1CCCn2nc(NC3CC4CCCC(C3)N4)cc2C1` (centres unmarked) [Example 316] was not above 100 nM.
For `CC1CN(C(=O)c2cc3n(n2)CCN(C(=O)OCc2cc(C(F)(F)F)cc(C(F)(F)F)c2)C3)CCN1C(=O)OC(C)(C)C` (centres unmarked) [Example 467], the half-inhibitory concentration (IC50) was not above 100 nM.
Same read-out and setting: the figure for `CC1CN(CC(=O)c2cc3n(n2)CCCN(C(=O)OCc2cc(Cl)cc(C(F)(F)F)c2)C3)CC(C)O1` (centres unmarked) [Example 269] is not above 100 nM; for `O=C(OCc1cc(C(F)(F)F)cc(C(F)(F)F)c1)N1CCCn2nc(N3CCN4CCC[C@H]4C3)cc2C1` [Example 346] it is not above 100 nM.
On to `O=C(OCc1cc(C(F)(F)F)cc(C(F)(F)F)c1)N1CCCn2nc(C3CCNC3)cc2C1` (centres unmarked) [Example 384], for which the half-maximal inhibitory concentration (IC50) is not above 250 nM.
The same measure, in the same setting: the value for `O=C(O)C1CN(C(=O)OCc2cc(C(F)(F)F)cc(C(F)(F)F)c2)Cc2ccnn2C1` (centres unmarked) [Example 415] was not above 250 nM; that for `CC1CN(C(=O)c2cc3n(n2)CCN(C(=O)OCc2cc(C(F)(F)F)cc(C(F)(F)F)c2)C3)CC(C)N1C(=O)OC(C)(C)C` (centres unmarked) [Example 469] was not above 100 nM; that for `O=C(O)Cn1cc(-c2cc3n(n2)CCCN(C(=O)OCc2cc(C(F)(F)F)cc(C(F)(F)F)c2)C3)cn1` [Example 412] was not above 100 nM.
Same read-out and setting: the figure for `CN1C2CCCC1CN(C(=O)c1cc3n(n1)CCCN(C(=O)OCc1cc(C(F)(F)F)cc(C(F)(F)F)c1)C3)C2` [Example 230] is not above 100 nM; for `O=C(OCc1cc(C(F)(F)F)cc(C(F)(F)F)c1)N1CCCn2nc(Br)cc2C1` [Example 280] it is not above 100 nM; for `O=C(OCc1cc(Cl)cc(Cl)c1)N1CCCn2nc(-c3nnn[nH]3)cc2C1` [Example 123, 3,5-Dichlorobenzyl 2-(1H-tetrazol-5-yl)-7,8-dihydro-4H-pyrazolo[1,5-a][1,4]diazepine-5(6H)-carboxylate] it is not above 250 nM.
Same read-out and setting: the value for `O=C(O)C1CC2CCCC(C1)N2C(=O)c1cc2n(n1)CCCN(C(=O)OCc1cc(F)cc(Cl)c1)C2` (centres unmarked) [Example 61, 9-(5-((3-Chloro-5-fluorobenzyloxy)carbonyl)-5,6,7,8-tetrahydro-4H-pyrazolo[1,5-a][1,4]diazepine-2-carbonyl)-9-aza-bicyclo[3.3.1]nonane-3-carboxylic acid] was not above 100 nM; that for `O=C(OCc1cc(Cl)cc(C(F)(F)F)c1)N1CCCn2nc(C(=O)N3CCNCC3C(F)(F)F)cc2C1` (centres unmarked) [Example 181] was not above 100 nM.
Turning to `O=C(OCc1cc(F)cc(C(F)(F)F)c1)N1CCn2cc(C(F)(F)F)nc2C1` [Example 126, 3-Fluoro-5-(trifluoromethyl)benzyl 2-(trifluoromethyl)-5,6-dihydroimidazo[1,2-a]pyrazine-7(8H)-carboxylate], the IC50 is not above 500 nM.
Same read-out and setting: the figure for `O=C(OCc1cc(C(F)(F)F)cc(C(F)(F)F)c1)N1CCn2nc(C(=O)N3CC(O)C3)cc2C1` [Example 483] is not above 100 nM; for `O=C(OCc1cc(Cl)cc(Cl)c1)N1CCCn2nc(C(=O)N3CCCC3)cc2C1` [Example 18, 3,5-Dichlorobenzyl 2-(pyrrolidine-1-carbonyl)-7,8-dihydro-4H-pyrazolo[1,5-a][1,4]diazepine-5(6H)-carboxylate] it is not above 100 nM; for `CC(Nc1cc2n(n1)CCCN(C(=O)OCc1cc(C(F)(F)F)cc(C(F)(F)F)c1)C2)C(=O)O` (centres unmarked) [Example 361, 2-((5-(((3,5-bis(trifluoromethyl)benzyl)oxy)carbonyl)-5,6,7,8-tetra-hydro-4H-pyrazolo[1,5-a][1,4]diazepin-2-yl)amino)propanoic acid] it is not above 250 nM.
Still for that read-out and setting: the figure for `COC(=O)C1CCN(C(=O)c2cc3n(n2)CCN(C(=O)OCc2cc(C(F)(F)F)cc(C(F)(F)F)c2)C3)CC1` [Example 494] is not above 100 nM.
